From paper PMC12434670 (Journal of Medicinal Chemistry, 2025)
Where two headings read alike, the source gives them in different places.

Experiments:
[1] = test system: A/H1N1 virus A/PR/8/34 (PR8); test: microbe, parasite or virus in culture; assay type: cell-based; details: Influenza A virus, MDCK
[2] = test system: A/H1N1 virus A/Virginia/ATCC3/2009 (Virg09); test: microbe, parasite or virus in culture; assay type: cell-based, influenza A virus; details: for EC50: Influenza A virus, MDCK
MDCK cells = details: dog
in vitro = details: dog
[3] = read-out: Antiviral EC50 for PR8 virus
[4] = read-out: Antiviral EC50 for Virg09 virus
[5] = read-out: Antiviral EC50 against A/H1N1 virus, PR8 strain, MTS
[6] = read-out: Antiviral EC50 against A/H1N1 virus, PR8 strain, Microscopy
[7] = read-out: Antiviral EC50 against A/H1N1 virus, Virg09 strain, MTS
[8] = read-out: Antiviral EC50 against A/H1N1 virus, Virg09 strain, Microscopy

## Cc1cc(CNC(=O)c2cc(F)cc(F)c2)c(C)s1 [Compound 26, 3,5-Difluoro-N-[(2,5-dimethylthiophen-3-yl)methyl]benzamide]
[1]; [3]
  EC50: > 100 µM
[2]; [4]
  EC50: > 100 µM

## Cc1cc(CNC(=O)c2cc(Cl)cc(Cl)c2)c(C)s1 [Compound 27, 3,5-Dichloro-N-[(2,5-dimethylthiophen-3-yl)methyl]benzamide]
[1]; [3]
  EC50: > 100 µM
[2]; [4]
  EC50: > 100 µM

## Cc1cc(CNC(=O)c2cc(Br)cc(Br)c2)c(C)s1 [Compound 28, 3,5-Dibromo-N-[(2,5-dimethylthiophen-3-yl)methyl]benzamide]
[1]; [3]
  EC50: > 100 µM
[2]; [4]
  EC50: > 100 µM

## Cc1cc(CNC(=O)c2cccc(F)c2)c(C)s1 [Compound 30, N-[(2,5-Dimethylthiophen-3-yl)methyl]-3-fluorobenzamide]
[1]; [3]
  EC50: > 100 µM
[2]; [4]
  EC50: > 100 µM

## Cc1cc(CNC(=O)c2cccc(C(F)(F)F)c2)c(C)s1 [Compound 31, N-[(2,5-Dimethylthiophen-3-yl)methyl]-3-(trifluoromethyl)benzamide]
[1]; [3]
  EC50: > 100 µM
[2]; [4]
  EC50: > 100 µM

## Cc1cc(CNC(=O)c2cccc(Cl)c2)c(C)s1 [Compound 32, 3-Chloro-N-[(2,5-dimethylthiophen-3-yl)methyl]benzamide]
[1]; [3]
  EC50: > 100 µM
[2]; [4]
  EC50: > 100 µM

## Cc1cc(CNC(=O)c2cccc(Br)c2)c(C)s1 [Compound 33, 3-Bromo-N-[(2,5-dimethylthiophen-3-yl)methyl]benzamide]
[1]; [3]
  EC50: > 100 µM
[2]; [4]
  EC50: > 100 µM

## Cc1cc(CNC(=O)c2cccc([N+](=O)[O-])c2)c(C)s1 [Compound 34, N-[(2,5-Dimethylthiophen-3-yl)methyl]-3-nitrobenzamide]
[1]; [3]
  EC50: > 100 µM
[2]; [4]
  EC50: > 100 µM

## Cc1cc(CNC(=O)c2cc(F)c(F)c(C(F)(F)F)c2)c(C)s1 [Compound 35, N-((2,5-Dimethylthiophen-3-yl)methyl)-3,4-difluoro-5-(trifluoromethyl)benzamide]
[1]; [5]
  EC50: 0.22 ± 0.03 µM
[1]; [6]
  EC50: 0.86 ± 0.41 µM
[2]; [7]
  EC50: 0.2 ± 0.05 µM
[2]; [8]
  EC50: 0.89 ± 0.13 µM
MDCK cells
  Cytotoxicity MCC, Microscopy: >100 µM
In vitro
  CC50: > 100 µM

## Cc1cc(CNC(=O)c2ccccc2)c(C)s1 [Compound 40, N-((2,5-Dimethylthiophen-3-yl)methyl)benzamide]
[1]; [3]
  EC50: > 100 µM
[2]; [4]
  EC50: > 100 µM

## Cc1cc(CNC(=O)c2ccc(Cl)cc2)c(C)s1 [Compound 41, 4-Chloro-N-((2,5-dimethylthiophen-3-yl)methyl)benzamide]
[1]; [3]
  EC50: > 100 µM
[2]; [4]
  EC50: > 100 µM

## Cc1ccc(C(=O)NCc2cc(C)sc2C)cc1 [Compound 42, N-((2,5-Dimethylthiophen-3-yl)methyl)-4-methylbenzamide]
[1]; [3]
  EC50: > 100 µM
[2]; [4]
  EC50: > 100 µM

## COc1ccc(C(=O)NCc2cc(C)sc2C)cc1 [Compound 43, N-((2,5-Dimethylthiophen-3-yl)methyl)-4-methoxybenzamide]
[1]; [3]
  EC50: > 100 µM
[2]; [4]
  EC50: > 100 µM

## Cc1cc(CNC(=O)c2ccc(Cl)c(Cl)c2)c(C)s1 [Compound 44, 3,4-Dichloro-N-((2,5-dimethylthiophen-3-yl)methyl)benzamide]
[1]; [3]
  EC50: > 100 µM
[2]; [4]
  EC50: > 100 µM

## Cc1cc(CNC(=O)c2cc(F)cc(C(F)(F)F)c2)cs1 [Compound 45, 3-Fluoro-N-((5-methylthiophen-3-yl)methyl)-5-(trifluoromethyl)benzamide]
[1]; [5]
  EC50: 0.68 ± 0.51 µM
[1]; [6]
  EC50: 0.26 ± 0.02 µM
[2]; [7]
  EC50: 0.39 ± 0.18 µM
[2]; [8]
  EC50: 1.6 ± 0.5 µM
MDCK cells
  Cytotoxicity MCC, Microscopy: 78 ± 22 µM
In vitro
  CC50: 67 ± 1 µM

## Cc1sccc1CNC(=O)c1cc(F)cc(C(F)(F)F)c1 [Compound 46, 3-Fluoro-N-((2-methylthiophen-3-yl)methyl)-5-(trifluoromethyl)benzamide]
[1]; [5]
  EC50: 0.23 ± 0.08 µM
[1]; [6]
  EC50: 0.17 ± 0.04 µM
[2]
  ΔΔG (exp), change VF-57a → labelled compound: 1.8 kcal/mol
  ΔΔG (exp), change labelled compound → VF-57a: –1.8 kcal/mol
[2]; [7]
  EC50: 6.8 ± 6.5 µM
[2]; [8]
  EC50: 8.3 ± 5.1 µM
MDCK cells
  Cytotoxicity MCC, Microscopy: 67 ± 33 µM
In vitro
  CC50: > 100 µM

## O=C(NCc1ccsc1)c1cc(F)cc(C(F)(F)F)c1 [Compound 47, 3-Fluoro-N-(Thiophen-3-ylmethyl)-5-(trifluoromethyl)benzamide]
[1]; [5]
  EC50: 0.42 ± 0.1 µM
[1]; [6]
  EC50: 0.44 ± 0.16 µM
[2]
  ΔΔG (exp), change VF-57a → labelled compound: 1.9 kcal/mol
  ΔΔG (exp), change labelled compound → VF-57a: –1.9 kcal/mol
[2]; [7]
  EC50: 7.2 ± 4.1 µM
[2]; [8]
  EC50: 20 ± 8 µM
MDCK cells
  Cytotoxicity MCC, Microscopy: >100 µM
In vitro
  CC50: > 100 µM

## Cc1cc(CNC(=O)c2cc(Cl)cc(C(F)(F)F)c2)cs1 [Compound 48, 3-Chloro-N-((5-methylthiophen-3-yl)methyl)-5-(trifluoromethyl)benzamide]
[1]; [5]
  EC50: 0.34 ± 0.18 µM
[1]; [6]
  EC50: 0.46 ± 0.14 µM
[2]; [7]
  EC50: 0.15 ± 0.12 µM
[2]; [8]
  EC50: 1.9 ± 1.1 µM
MDCK cells
  Cytotoxicity MCC, Microscopy: >100 µM
In vitro
  CC50: > 100 µM

## Cc1sccc1CNC(=O)c1cc(Cl)cc(C(F)(F)F)c1 [Compound 49, 3-Chloro-N-((2-methylthiophen-3-yl)methyl)-5-(trifluoromethyl)benzamide]
[1]; [5]
  EC50: 0.14 ± 0.04 µM
[1]; [6]
  EC50: 0.14 ± 0.05 µM
[2]; [7]
  EC50: 0.37 ± 0.16 µM
[2]; [8]
  EC50: 0.48 ± 0.07 µM
MDCK cells
  Cytotoxicity MCC, Microscopy: 78 ± 22 µM
In vitro
  CC50: > 100 µM

## O=C(NCc1ccsc1)c1cc(Cl)cc(C(F)(F)F)c1 [Compound 50, 3-Chloro-N-(Thiophen-3-ylmethyl)-5-(trifluoromethyl)benzamide]
[1]; [5]
  EC50: 2 ± 1 µM
[1]; [6]
  EC50: 1 ± 0.6 µM
[2]
  ΔΔG (exp), change VF-57a → labelled compound: 0.8 kcal/mol
  ΔΔG (exp), change labelled compound → VF-57a: –0.8 kcal/mol
[2]; [7]
  EC50: 1.1 ± 0.5 µM
[2]; [8]
  EC50: 2.1 µM
MDCK cells
  Cytotoxicity MCC, Microscopy: 100 ± 0 µM
In vitro
  CC50: 70 ± 2 µM

## Cc1cc(CNC(=O)c2cc(F)c(F)c(C(F)(F)F)c2)cs1 [Compound 51, 3,4-Difluoro-N-((5-methylthiophen-3-yl)methyl)-5-(trifluoromethyl)benzamide]
[1]; [5]
  EC50: 2.9 ± 1.1 µM
[1]; [6]
  EC50: 3.5 ± 1.2 µM
[2]; [7]
  EC50: 5.3 ± 0.8 µM
[2]; [8]
  EC50: > 100 µM
MDCK cells
  Cytotoxicity MCC, Microscopy: 33 ± 0 µM
In vitro
  CC50: 24 ± 2 µM

## O=C(NCc1ccoc1)c1cc(F)cc(C(F)(F)F)c1 [Compound 56, 3-Fluoro-N-(Furan-3-ylmethyl)-5-(trifluoromethyl)benzamide]
[1]; [3]
  EC50: > 100 µM
[2]; [4]
  EC50: > 100 µM

## O=C(NCc1cncs1)c1cc(F)cc(C(F)(F)F)c1 [Compound 57, 3-Fluoro-N-(Thiazol-5-ylmethyl)-5-(trifluoromethyl)benzamide]
[1]; [3]
  EC50: > 100 µM
[2]; [4]
  EC50: > 100 µM

## O=C(NCc1ccon1)c1cc(F)cc(C(F)(F)F)c1 [Compound 58, 3-Fluoro-N-(Isoxazol-3-ylmethyl)-5-(trifluoromethyl)benzamide]
[1]; [3]
  EC50: > 100 µM
[2]; [4]
  EC50: > 100 µM

## O=C(NCc1ccncc1)c1cc(F)cc(C(F)(F)F)c1 [Compound 59, 3-Fluoro-N-(Pyridin-4-ylmethyl)-5-(trifluoromethyl)benzamide]
[1]; [3]
  EC50: > 100 µM
[2]; [4]
  EC50: > 100 µM

## O=C(NCc1cc[nH]n1)c1cc(F)cc(C(F)(F)F)c1 [Compound 60, N-((1H-Pyrazol-3-Yl)methyl)-3-fluoro-5-(trifluoromethyl)benzamide]
[1]; [3]
  EC50: > 100 µM
[2]; [4]
  EC50: > 100 µM

## O=C(NCc1cocn1)c1cc(F)cc(C(F)(F)F)c1 [Compound 61, 3-Fluoro-N-(Oxazol-4-ylmethyl)-5-(trifluoromethyl)benzamide]
[1]; [3]
  EC50: > 100 µM
[2]; [4]
  EC50: > 100 µM

## O=C(NCc1cscn1)c1cc(F)cc(C(F)(F)F)c1 [Compound 62, 3-Fluoro-N-(Thiazol-4-ylmethyl)-5-(trifluoromethyl)benzamide]
[1]; [3]
  EC50: > 100 µM
[2]; [4]
  EC50: > 100 µM
